We go through four compounds from patent US8153581B2, “Process for producing an injectable medicament preparation” (KTB Tumorforschungs GmbH, priority 1999, dated 2012).

For series [1], the target named is T1, albumin (Homo sapiens, UniProt P02768). Conditions: 37° C.
Procedure: In this experiment, the plasma sample was separated, after the incubation had taken place, on a POROS®-20 anion exchange column (the proteins were detected at 254 nm while the anthracycline was detected by fluorescence).
1.4 mg of 2 (Mr 1374) are dissolved, at room temperature, in 1.0 ml of phosphate buffer (0.15 M NaCl, 0.004 M sodium phosphate, pH 6.5) (1000 μm solution).
Series [2] in a line: RENCA model, body weight change. The class given is in vivo, Balc/c mice. Conditions: i.v. on d 10, 13, 17 and 20; approximately equitoxic doses. The source says:
(§1) The biological data listed below clarify the in vivo activity of DOXO-HYD as compared with that of free doxorubicin: in what is termed the RENCA (renal cell carcinoma)-model, doxorubicin and DOXO-HYD were compared with each other, at approximately equitoxic doses, as regards their antitumour activity (intravenous therapy 10 days after injecting about 1 million kidney carcinoma cells into the left kidney).
(§2) Animals: Balc/c mice, female; Tumour: RENCA, renal cell carcinoma
(§3) Therapy: Intravenous (i.v.) on day (d) 10, 13, 17 and 20, end of experiment on d24

The test system of series [3] is RENCA, renal cell carcinoma. The series can be described thus: RENCA (renal cell carcinoma) model, antitumour activity. The class given is in vivo, Balc/c mice.
Source text: as §1, §2, §3

In series [4] the target is T1, albumin. The series can be described thus: Incubation with human plasma, gel filtration chromatography (Superdex 200). The following applies: 250 μl of 100 μM solution with 1.0 ml human plasma, 5 minutes. The class given is in vitro ADME. Further details: with 1.0 ml of human plasma; from tissue; host or cells: human blood plasma. On the technique in general: Size exclusion chromatography separates by hydrodynamic size, large species first.

The mark [5] stands for this setting: as compared with the control group and the doxorubicin-treated group, 4 × 20 mmol/kg i.v.

Where two headings read alike, the source gives them in different places.

T1 sequence (P02768 25-609): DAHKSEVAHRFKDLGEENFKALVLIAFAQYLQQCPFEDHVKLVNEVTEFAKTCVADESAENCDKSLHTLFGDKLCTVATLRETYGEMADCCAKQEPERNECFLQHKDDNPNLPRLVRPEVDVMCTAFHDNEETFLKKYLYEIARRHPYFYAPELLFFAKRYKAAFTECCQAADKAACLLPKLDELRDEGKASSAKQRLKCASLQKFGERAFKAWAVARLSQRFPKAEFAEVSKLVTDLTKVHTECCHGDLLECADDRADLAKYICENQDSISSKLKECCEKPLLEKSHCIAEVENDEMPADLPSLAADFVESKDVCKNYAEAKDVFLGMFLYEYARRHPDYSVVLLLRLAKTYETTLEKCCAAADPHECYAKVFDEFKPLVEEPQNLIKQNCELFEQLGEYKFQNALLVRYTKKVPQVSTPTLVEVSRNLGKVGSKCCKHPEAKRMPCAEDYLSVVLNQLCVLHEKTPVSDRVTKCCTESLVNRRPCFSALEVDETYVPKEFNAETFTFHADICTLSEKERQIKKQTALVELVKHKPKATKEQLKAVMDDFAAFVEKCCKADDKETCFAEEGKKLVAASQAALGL

As to `COc1cccc2c1C(=O)c1c(O)c3c(c(O)c1C2=O)C[C@@](O)(/C(CO)=N/NC(=O)Cc1ccc(N2C(=O)C=CC2=O)cc1)C[C@@H]3OC1CC(C)C(O)C(N)C1.Cl` (some centres unmarked) [DOXO-HYD], at albumin [1] (human blood plasma, 5 minutes of incubation), the “covalent binding to albumin in human blood plasma” value is “most of the DOXO-HYD is covalently bonded to the albumin”. For the same compound, the “Average decrease in body weight (%) d 1-24” value in series [2] is on record as −15%. In addition, in series [3] (RENCA model, i.v. d 10, 13, 17, 20, 4 × 20 mmol/kg, end d24), the antitumour activity result is “very good antitumour activity”. Moreover, in series [3] (setting [5]), the kidney tumour volume result is on record as “marked reduction” and the “number of lung metastases” value is listed as “marked reduction”.

With `O=C(O)c1cc(N2C(=O)C=CC2=O)ccc1-c1c2ccc(=O)cc-2oc2cc(O)ccc12` [fluoresceinmaleimide], the “binding to albumin in human plasma” value at albumin [4] is given as “majority of the fluoresceinmaleimide is bound to albumin”.

For `COc1cccc2c1C(=O)c1c(O)c3c(c(O)c1C2=O)C[C@@](O)(C(CO)=NNC(=O)CCCCCN1C(=O)C=CC1=O)C[C@@H]3O[C@H]1C[C@H](N)[C@H](O)[C@H](C)O1` [DOXO-EMCH, 6-maleimidocaproic acid hydrazone derivative of doxorubicin], the “binding to albumin in human plasma” value on albumin [1] (250μ of 2000 μM solution with 1.0 ml human plasma, 30 seconds) is “majority of the DOXO-EMCH is bound to albumin”.

In the case of `COc1cccc2c1C(=O)c1c(O)c3c(c(O)c1C2=O)C[C@@](O)(C(=O)CO)C[C@@H]3O[C@H]1C[C@H](N)[C@H](O)[C@H](C)O1` [Doxorubicin, doxorubicin, reference compound], the “Average decrease in body weight (%) d 1-24” value in series [2] is −15%.
